Results published in patent publication US10752900B2, “Oligonucleotides for modulating gene expression and uses thereof” (BIOGENERA S.P.A., priority 2012, dated 2020).

Columns and labels:
[1] = test system: human and mouse neuroblastoma tumour cell lines (SMS-KAN, LAN 1, IMR-32, SMS-KCN, Kelly, NHO2A, SKNBE2c); format: cell-based
MYCN gene = assay: QT-PCR, MYCN mRNA in Kelly cells; format: cell-based, human; set-up: mRNA Inhibition (%)(Kelly): concentration or dose not given beside the values; details: for mRNA inhibition (%): Table 1, PNA 1 μM, RNA extracted after 24 hours; for Kelly % mRNA: Table 6
Description: For the purpose of assessing the ability of the oligonucleotides of the present invention to modulate the expression of the target genes, their ability to reduce the quantity of messenger RNA was analyzed using the Real-Time PCR technique.
For this purpose, use was made of 24-well plates, which were seeded with 5.0×10^4 cells with 0.3 ml of OPTI-MEM (GIBCO BRL) medium, 4% FBS and 2 mM L-glutammine (experiments in triplicate) per well.
The cells were incubated for 24 hours at 37° C., in an atmosphere containing 5% CO2 to permit adherence to the base of the wells.
Each oligonucleotide analyzed, except for the PNA oligonucleotides, was incubated beforehand with 2 μl of Lipofectamine 2000 (Invitrogen), with 0.3 mL of serum-free OPTI-MEM (GIBCO BRL) medium.
For each well, the oligonucleotides were analyzed at the following final concentrations: • the antisense oligonucleotides siRNA and siRNA gapmer (i.e. the oligonucleotides containing one or more monomers of chemically modified nucleic acids at the 3′ or 5′ end, while in the central portion they have monomers of nucleic acids that have not been modified or have been modified at the level of the phosphodiester bond as a phosphorothioate bond) were used at 200 nM; • the antisense oligonucleotides containing phosphorothioate DNA monomers, the RNA antigene oligonucleotides (agRNA) and the oligonucleotides containing DNA monomers and LNA monomers were used at 10 μM; • the morpholino oligonucleotides were used at a concentration of 1 μM, and • the PNA oligonucleotides were administered at a concentration of 1 μM.
The cells were treated with the oligonucleotides, adding FBS up to 4% 6 hours after administration of the same. After 24 hours the total RNA was extracted from each well and purified using the RNeasy Mini Kit (QIAGEN).
Assays were performed on 8 cell lines obtained from 5 different human tumours which are correlated with MYCN expression, i.e.: • as a neuroblastoma model use was made of the cell lines Kelly, IMR-32 (where the MYCN gene is amplified and superexpressed) and SKNBE2c and LAN1 (where the MYCN gene is amplified and superexpressed and the p53 gene is mutated); • as a rabdomiosarcoma model use was made of the cell line RH30, where the MYCN gene is amplified and superexpressed; • as a Wilms' tumour model use was made of the cell line WiT49, where the MYCN gene is amplified and superexpressed; • as a retinoblastoma model use was made of the cell line Y79, where the MYCN gene is amplified and superexpressed; and • as a model of small cell lung cancer use was made of the cell line H69 where the MYCN gene is amplified and superexpressed.
As a control, use was made of the same cell lines as listed above treated with sterile water instead of oligonucleotides. Each RNA sample was quantified (in duplicate) using a NanoDrop ND-1000 spectrophotometer (NanoDrop Technologies). The first strand of cDNA was produced using the cDNA Synthesis Kit for RT-PCR (Roche). For the cDNA synthesis reaction a total of 1 μg of RNA was used. For the real-time PCR, 10 ng of cDNA in a final volume of 20 μl was used with SYBR Green Master Mix 2× (Applied Biosystems) (3 identical experiments were conducted in triplicate). Two housekeeping genes were used as positive controls: GAPDH and beta-actin (ACTB).
The conditions of the QT-PCR reaction were: 10 min at 95° C., 20 sec at 95° C., and 30 sec at 60° C., for 50 cycles.
As far as the PNA oligonucleotides are concerned, the results regarding their ability to inhibit the transcription of the MYCN gene and proliferation of Kelly cells are shown in Table 1.
The oligonucleotides were tested in vitro (at a concentration of 2.5 μM) to determine their ability to inhibit the transcription of the gene they are directed against by measuring the levels of the gene messenger in cellular models in which the gene of interest is overexpressed. The methods used are the ones described in example 1. […]

Substance	effect in terms of inhibiting cell proliferation in combination with chemotherapeutic agents [1]	mRNA inhibition (%) (MYCN gene)	Kelly % mRNA (MYCN gene) [%]	mRNA Inhibition (%)(Kelly) (MYCN gene; Table 7, SEQ ID NO: 5 and guanine-group mutants) [%]
SEQ ID NO: 1: PNA ATGCCGGGCATGATCT against MYCN; subject of patent EP 1618195, control sequence used for comparison (all peptide nucleic acid (PNA)) [reference compound]	synergic effect	42	48	–
SEQ ID NO: 2: PNA antigene oligonucleotide GGGTGGATGCGGGGGG directed against MYCN (PNA backbone, chemistry not fully specified)	–	75	75	–
SEQ ID NO: 3: PNA antigene oligonucleotide GATGCGGGGGGCTCCT directed against MYCN (PNA backbone, chemistry not fully specified)	–	68	68	–
SEQ ID NO: 4: PNA antigene oligonucleotide GTCGGCGGGAGGTAAG directed against MYCN (PNA backbone, chemistry not fully specified)	–	65	65	–
SEQ ID NO: 5: PNA antigene oligonucleotide GCTGGGTGGATGCGGG directed against MYCN (PNA backbone, chemistry not fully specified)	–	62	62	62
SEQ ID NO: 6: PNA antigene oligonucleotide TGGACGCGCTGGGTGG directed against MYCN (PNA backbone, chemistry not fully specified)	–	60	60	–
SEQ ID NO: 7: PNA antigene oligonucleotide CGCGCTGGGTGGATGC directed against MYCN (all peptide nucleic acid (PNA))	–	58	58	–
SEQ ID NO: 8: PNA antigene oligonucleotide GTCTGGACGCGCTGGG directed against MYCN (all peptide nucleic acid (PNA))	–	54	54	–
SEQ ID NO: 9: PNA antigene oligonucleotide CCCTGCAGTCGGCGGG directed against MYCN (all peptide nucleic acid (PNA))	–	51	51	–
SEQ ID NO: 10: PNA antigene oligonucleotide CGGCCGCGGGCCGCCA directed against MYCN (PNA backbone, chemistry not fully specified)	–	51	51	–
SEQ ID NO: 11: PNA antigene oligonucleotide GGGAACTGTGTTGGAG directed against MYCN (PNA backbone, chemistry not fully specified)	–	48	50	–
SEQ ID NO: 12: PNA antigene oligonucleotide TGTCTGGACGCGCTGG directed against MYCN (all peptide nucleic acid (PNA))	–	47	50	–
